The record followed here is PMC12311136 (Nature Communications, 2025).

SMILES strings stand for the structures.

What all share (type): binding
Test [1] deals with T1, DRP1A (Arabidopsis thaliana, UniProt P42697).
T1 sequence (P42697 1-610): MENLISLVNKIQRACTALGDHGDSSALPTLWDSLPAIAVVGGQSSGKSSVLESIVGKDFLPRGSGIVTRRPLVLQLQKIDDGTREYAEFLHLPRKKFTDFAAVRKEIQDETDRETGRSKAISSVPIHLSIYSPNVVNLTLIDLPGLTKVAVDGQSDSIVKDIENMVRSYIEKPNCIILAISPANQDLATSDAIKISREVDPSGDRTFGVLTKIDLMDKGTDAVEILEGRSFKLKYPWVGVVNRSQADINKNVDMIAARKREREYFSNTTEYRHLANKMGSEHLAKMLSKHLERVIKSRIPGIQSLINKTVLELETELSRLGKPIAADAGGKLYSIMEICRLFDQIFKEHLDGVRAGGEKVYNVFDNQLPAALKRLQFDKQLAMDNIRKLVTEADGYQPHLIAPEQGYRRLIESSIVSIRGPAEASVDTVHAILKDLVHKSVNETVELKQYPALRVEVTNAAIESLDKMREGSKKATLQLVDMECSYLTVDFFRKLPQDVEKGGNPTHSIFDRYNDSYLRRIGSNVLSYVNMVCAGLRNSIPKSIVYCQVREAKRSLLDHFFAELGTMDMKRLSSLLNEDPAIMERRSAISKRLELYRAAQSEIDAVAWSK
Put plainly: bio-layer interferometry, POPC background subtracted. The following applies: 3% lipid in POPC liposomes; HEPES pH 7.5, 100 mM NaCl.

In test [2] the target is T2, ALA1 Loop2 (410–914 aa) (Arabidopsis thaliana, UniProt P98204).
T2 sequence (P98204 410-914): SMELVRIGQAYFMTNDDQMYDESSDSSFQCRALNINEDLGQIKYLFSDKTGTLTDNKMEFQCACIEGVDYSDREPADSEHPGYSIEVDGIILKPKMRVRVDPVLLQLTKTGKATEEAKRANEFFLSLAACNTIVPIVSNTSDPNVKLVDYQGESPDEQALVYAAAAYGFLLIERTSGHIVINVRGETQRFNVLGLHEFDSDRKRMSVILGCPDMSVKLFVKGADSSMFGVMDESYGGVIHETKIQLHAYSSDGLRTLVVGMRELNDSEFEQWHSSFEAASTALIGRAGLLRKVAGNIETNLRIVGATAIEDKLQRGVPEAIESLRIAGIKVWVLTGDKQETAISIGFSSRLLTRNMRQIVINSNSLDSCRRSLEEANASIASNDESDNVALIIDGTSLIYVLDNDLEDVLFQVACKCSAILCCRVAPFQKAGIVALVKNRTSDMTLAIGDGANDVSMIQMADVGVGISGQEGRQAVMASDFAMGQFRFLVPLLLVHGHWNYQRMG
Put plainly: bio-layer interferometry, liposome-loaded APS sensor.

Test [3] addresses T3, ALA1 Loop1 (151–329 aa) (Arabidopsis thaliana, UniProt P98204).
T3 sequence (P98204 151-329): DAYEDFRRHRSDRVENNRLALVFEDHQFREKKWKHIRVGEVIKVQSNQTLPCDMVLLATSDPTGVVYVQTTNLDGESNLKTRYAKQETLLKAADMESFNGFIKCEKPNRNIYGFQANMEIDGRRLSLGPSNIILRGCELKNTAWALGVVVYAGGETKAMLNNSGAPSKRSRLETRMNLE
The description is as above.

Test [4] concerns the target T2, ALA1 Loop2 (410–914 aa). Briefly: bio-layer interferometry, POPC background subtracted. The following applies: 3% lipid in POPC liposomes; HEPES pH 7.5, 100 mM NaCl.
For test [5], the target named is T1, DRP1A. Put plainly: bio-layer interferometry, liposome-loaded APS sensor.

Regarding `CCCCCCCC/C=C\CCCCCCCC(=O)OC[C@H](COP(=O)(O)O[C@H]1[C@H](O)[C@@H](O)[C@H](OP(=O)(O)O)[C@@H](O)[C@H]1O)OC(=O)CCCCCCC/C=C\CCCCCCCC` [PI4P], the “bio-layer interferometry, POPC background subtracted” value (shortened to “bio-layer interferometry”) in test [1] was “followed by weaker binding to PI4P and PS liposomes”. Besides, the Kd in test [2] is 2210 nM; in test [3] it was 6050 nM.

In the case of `CCCCCCCC/C=C\CCCCCCCC(=O)OC[C@H](COP(=O)(O)O[C@H]1[C@H](O)[C@@H](OP(=O)(O)O)[C@H](O)[C@@H](O)[C@H]1O)OC(=O)CCCCCCC/C=C\CCCCCCCC` [PI5P], the “bio-layer interferometry” value in test [4] was “highest near-steady-state binding was observed with PS, PI4P and PI5P liposomes”.

`CCCCCCCC/C=C\CCCCCCCC(=O)OC[C@H](COP(=O)(O)O[C@@H]1[C@H](O)[C@H](O)[C@@H](OP(=O)(O)O)[C@H](OP(=O)(O)O)[C@H]1O)OC(=O)CCCCCCC/C=C\CCCCCCCC` [PI(4,5)P2] returned a Kd in test [5] of 1230 nM. This counts as single-digit micromolar.

Take `CCCCCCCC/C=C\CCCCCCCC(=O)OC[C@H](COP(=O)(O)OC[C@H](N)C(=O)O)OC(=O)CCCCCCC/C=C\CCCCCCCC` [PS]: the “bio-layer interferometry” value in test [1] was “followed by weaker binding to PI4P and PS liposomes”; in test [4] it was “highest near-steady-state binding was observed with PS, PI4P and PI5P liposomes”.
